Experimental findings from US6967196B1, “Sulfonamide compounds and uses thereof” (Bristol-Myers Squibb Company, priority 1999, dated 2005) are described below.

Where a name gives a salt, the structure may show the parent alone.

In the first assay the test system is amyloid β production in transfected H4 (human neuroglioma) cells stably expressing APP constructs. As to the kind of experiment: In vitro cell-based assay of inhibitors of amyloid β production (ELISA). The settings on record: Homo sapiens, 16 h, transfected H4 cells expressing APP, approximately 16 hours incubation, amyloid β in medium by ELISA; read-out: ACTIVITY (IC50, inhibition of amyloid β production). The essentials:
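Cells expressing wild-type or variant APP were plated ≥6 h before medium was replaced with compound-containing medium (initial screen 10-100 μM) and incubated ~16 h. Secreted Aβ in medium was quantified by sandwich ELISA (C-terminal-specific mouse monoclonal capture, N-terminal rabbit polyclonal detection) against an Aβ standard curve.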
For orientation: An ELISA detects its analyte on a solid surface through an enzyme-linked reagent.
As to `C[C@H](C(=O)NCCc1ccccn1)N(c1cc(Cl)ccc1F)S(=O)(=O)c1ccc(Cl)cc1` [Example 1339], the IC50 was 100 to 500 nM.

The assay is the same for the next values; noted with them: Homo sapiens, 16 h, transfected H4 cells stably expressing APP; approximately 16 hours incubation; amyloid β in medium by ELISA; Table B; read-out: ACTIVITY (IC50, inhibition of amyloid β production).
In the case of `C[C@H](c1ccccc1CCC(=O)NC1CCCc2ccccc21)N(c1cc(F)ccc1F)S(=O)(=O)c1ccc(Cl)cc1` (stereo partly drawn) [Example 406, 3-[2-((1R)-1-{[(4-chlorophenyl)sulfonyl]-2,5-difluoroanilino}ethyl)phenyl]-N-(1,2,3,4-tetrahydro-1-naphthalenyl)propanamide], the IC50 lay in the range of 50 to 100 nM.

The assay is the same for the next values; noted with them: Homo sapiens, 16 h, transfected H4 cells stably expressing APP; approximately 16 hours incubation; amyloid β in medium by ELISA; read-out: ACTIVITY (IC50, inhibition of amyloid β production).
For `O=S(=O)(c1ccc(Cl)cc1)N(Cc1ccccc1C#CCCO)c1ccccc1` [Example 1040, 4-chloro-N-[2-(4-hydroxy-1-butynyl)benzyl}-N-phenylbenzenesulfonamide], the IC50 was above 500 nM. Same read-out and setting: for `O=S(=O)(c1ccc(Cl)cc1)N(Cc1ccccc1OCCCN1CCCCC1)C1CC1` [Example 1003, 4-chloro-N-cyclopropyl-N-{2-[3-(1-piperidinyl)propoxy]benzyl}benzenesulfonamide hydrochloride] the value was above 500 nM.

On to `C=Cc1ccccc1[C@@H](C)N(c1cc(F)ccc1F)S(=O)(=O)c1ccc(Cl)cc1` [Example 874, 4-chloro-N-(2,5-difluorophenyl)-N-[(1R)-1-(2-vinylphenyl)ethyl]benzenesulfonamide], for which the IC50 fell in the range of 100 to 500 nM.

In the case of `O=S(=O)(c1ccc(Cl)cc1)N(Cc1ccccc1OCCCN1CCCCC1)C1CCCCCC1` [Example 897, 4-chloro-N-cycloheptyl-N-{2-[3-(1-piperidinyl)propoxy]benzyl}benzenesulfonamide hydrochloride], the IC50 was above 500 nM.

`CSCCCc1cc(F)ccc1[C@@H](C)N(c1cc(F)ccc1F)S(=O)(=O)c1ccc(SC)cc1` [Example 912, N-(2,5-difluorophenyl)-N-((1R)-1-{4-fluoro-2-[3-(methylsulfanyl)propyl]phenyl}ethyl)-4-(methylsulfanyl)benzenesulfonamide]: the IC50 is above 500 nM. Consider `O=S(=O)(c1ccccc1)N(Cc1ccccc1CCCN1CCCCC1)c1ccccc1` [Example 1031, N-phenyl-N-{2-[3-(1-piperidinyl)propyl]benzyl}benzenesulfonamide], for which the IC50 was above 500 nM. Take `O=S(=O)(c1ccc(Cl)cc1)N(Cc1ccccc1CCCCCN1CCCCC1)c1ccccc1` [Example 978, 4-chloro-N-phenyl-N-{2-[5-(1-piperidinyl)pentyl]benzyl}benzenesulfonamide hydrochloride]: the IC50 was above 500 nM.

With `O=S(=O)(c1ccc(Cl)cc1)N(Cc1ccccc1OCCCN1CCCCC1)c1cc(Cl)cnc1Cl` [Example 906, 4-chloro-N-(2,5-dichloro-3-pyridinyl)-N-{2-[3-(1-piperidinyl)propoxy]benzyl}benzenesulfonamide hydrochloride], the IC50 is above 500 nM.

Still in this assay, the particulars now being: Table B; transfected H4 cells stably expressing APP; approximately 16 hours incubation; amyloid β in medium by ELISA; read-out: ACTIVITY (inhibitory concentration IC50, inhibition of amyloid β production).
Turning to `C[C@H](CCOC(c1ccccc1)(c1ccccc1)c1ccccc1)N(c1cc(Cl)ccc1Cl)S(=O)(=O)c1ccc(Cl)cc1` [Example 26, 4-Chloro-N-(2,5-dichlorophenyl]-N-[1(R)-methyl-(3-triphenylmethyloxy)-propyl]benezenesulfonamide], the IC50 is at most 25 nM.

The same assay, now with this note: read-out: ACTIVITY (inhibitory concentration IC50, inhibition of amyloid β production).
On to `O=S(=O)(c1ccc(Cl)cc1)N(Cc1ccccc1OCCCN1CCCCC1)c1cccc(Cl)c1` [Example 235, 4-Chloro-N-(3-chlorophenyl)-N-{2-[3-(1-piperidinyl)propoxy]benzyl}benzenesulfonamide Hydrochloride], for which the IC50 is 25 to 50 nM.

Still in this assay, the particulars now being: transfected H4 cells stably expressing APP constructs; approximately 16 hours incubation; amyloid β in medium by ELISA; read-out: ACTIVITY (IC50, inhibition of amyloid β production).
With `CC(C)CSCCC[C@@H](C)N(c1cc(Cl)ccc1Cl)S(=O)(=O)c1ccc(Cl)cc1` [Example 1188], the IC50 lay in the range of 100 to 500 nM. On to “(2E)-1-N-(benzyloxy)-3-[2-({[(4-chlorophenyl)sulfonyl]anilino}methyl)phenyl]-2-propenamide hydrochloride [Example 1093]”, for which the IC50 is above 10000 nM. The same measure, in the same setting: for `C[C@H](CCCN1CCC(S(C)(=O)=O)CC1)N(c1cc(Cl)ccc1Cl)S(=O)(=O)c1ccc(Cl)cc1` [Example 1126, 4-chloro-N-(2,5-dichlorophenyl)-N-[4-[(4-methylsulfonyl)-1-piperidinyl]-1(R)-methylbutyl]benzenesulfonamide] the value was 50 to 100 nM; for `C[C@H](CCCN(C)S(C)(=O)=O)N(c1cc(Cl)ccc1F)S(=O)(=O)c1ccc(Cl)cc1` [Example 1101], at most 25 nM.

“4-chloro-N-(5-chloro-2-fluorophenyl)-N-[3-[2-[4-chloro-N-(5-chloro-2-fluorophenyl)-N-[(3-amino)-1(R)-methylpropyl]benzenesulfonamide]-3,4-dioxo-1-cyclobutenyl)amine-1(R)- [Example 1130]”: the IC50 is 50 to 100 nM. As for `CC(C)Oc1c(NCCC[C@@H](C)N(c2cc(Cl)ccc2Cl)S(=O)(=O)c2ccc(Cl)cc2)c(=O)c1=O` [Example 1128, 4-chloro-N-(2,5-dichlorophenyl)-N-[4-(2-isopropoxy-3,4-dioxo-1-cyclobutenyl)amine-1(R)-methylbutyl]benzenesulfonamide], the IC50 was in the range of 50 to 100 nM.

Still in this assay, the particulars now being: transfected H4 cells stably expressing APP; approx. 16 h incubation; amyloid β in medium by ELISA; read-out: ACTIVITY (IC50, inhibition of amyloid β production).
“N-{2-[2-(1-{[(4-chlorophenyl)sulfonyl]-2,5-difluoroanilino}ethyl)phenoxy]ethyl}-N-ethyl-2-(2-thienyl)acetamide [Example 705]”: the IC50 lay in the range of 100 to 500 nM. Same read-out and setting: to `CC(c1ccccc1OCCCN(C)C(=O)c1ccccc1I)N(c1cc(F)ccc1F)S(=O)(=O)c1ccc(Cl)cc1` (centres unmarked) [Example 637] belongs 100 to 500 nM.

Consider “N-{3-[2-(1-{[(4-chlorophenyl)sulfonyl]-2,5-difluoroanilino}ethyl)phenoxy]propyl}-3,4-dimethoxy-N-methylbenzamide [Example 643]”, for which the IC50 was 100 to 500 nM. The same measure, in the same setting: to “(2S)-2-[[2-((1R)-1-{[(4-chlorophenyl)sulfonyl]-2,5-difluoroanilino}ethyl)benzyl](methyl)amino]propanoic acid hydrochloride [Example 659]” belongs 100 to 500 nM; to “N-{3-[2-(1-{[(4-chlorophenyl)sulfonyl]-2,5-difluoroanilino}ethyl)phenoxy]propyl}-N-methyl-4-(trifluoromethoxy)benzamide [Example 770]”, 100 to 500 nM. Take “3-chloro-N-{3-[2-(1-{[(4-chlorophenyl)sulfonyl]-2,5-difluoroanilino}ethyl)phenoxy]propyl}-N-methylbenzenesulfonamide [Example 684]”: the IC50 is 100 to 500 nM. As to `CCOc1ccc(C(=O)N(C)CCCOc2ccccc2C(C)N(c2cc(F)ccc2F)S(=O)(=O)c2ccc(Cl)cc2)cc1` (centres unmarked) [Example 768], the IC50 lay within 100 to 500 nM.

The assay is the same for the next values; noted with them: transfected H4 cells stably expressing APP; approximately 16 hours incubation; amyloid β in medium by ELISA; Table B; read-out: ACTIVITY (IC50, inhibition of amyloid β production).
Turning to `CC(c1ccccc1OCCCn1ccnc1)N(c1cc(F)ccc1F)S(=O)(=O)c1ccc(Cl)cc1` (centres unmarked) [Example 321, 4-Chloro-N-(2,5-difluorophenyl)-N-1-{2-[3-(1H-imidazol-1-yl)propoxy]phenyl}ethyl)benzenesulfonamide Hydrochloride], the IC50 was in the range of 50 to 100 nM. Still for that read-out and setting: to `CN1C2CCC1[C@@H](COc1ccccc1CN(c1ccccc1)S(=O)(=O)c1ccc(Cl)cc1)C2` (stereo partly drawn) [Example 300, 4-Chloro-N-(2-{[(2S)-7-methyl-7-azabicyclo[2.2.1]hept-2-yl]methoxy]benzyl)-N-phenylbenzenesulfonamide Hydrochloride] belongs 50 to 100 nM.

Staying with this assay, now noted: transfected H4 cells stably expressing APP; approximately 16 hours incubation; amyloid β in medium by ELISA; read-out: ACTIVITY (IC50, inhibition of amyloid β production).
“S-methyl 2-[2-(1-{[(4-chlorophenyl)sulfonyl]-2,5-difluoroanilino}ethyl)phenoxy]ethyl(methyl)thiocarbamate [Example 983]”: the IC50 was above 500 nM. With “N-{2-[2-(1-{[(4-chlorophenyl)sulfonyl]-2,5-difluoroanilino}ethyl)phenoxy]ethyl}-N-ethylacrylamide [Example 949]”, the IC50 was above 500 nM. Same read-out and setting: for “N-{3-[2-(1-{[(4-chlorophenyl)sulfonyl]-2,5-difluoroanilino}ethyl)phenoxy]propyl}-N-methyl-2-naphthamide [Example 858]” the value was 100 to 500 nM; for “1-{3-[2-({[(4-chlorophenyl)sulfonyl]-2,5-difluoroanilino}methyl)phenoxy]propyl}-1-methylpiperidinium iodide [Example 1037]”, above 500 nM; for “tert-butyl 4-{3-[2-({[(4-chlorophenyl)sulfonyl]anilino}methyl)phenoxy]propyl}-1-piperazinecarboxylate hydrochloride [Example 1028]”, above 500 nM. Same read-out and setting: to “N-{2-[2-(1-{[(4-chlorophenyl)sulfonyl]-2,5-difluoroanilino}ethyl)phenoxy]ethyl}-N-ethyltetradecanamide [Example 928]” belongs above 500 nM; to `C[C@@H](c1ccc(F)cc1CCCC(=O)O)N(c1cc(F)ccc1F)S(=O)(=O)c1ccc(Cl)cc1` [Example 1076, 4-[2-((1S)-1-{[(4-chlorophenyl)sulfonyl]-2,5-difluoroanilino}ethyl)-5-fluorophenyl]butanoic acid], above 500 nM; to “N-{3-[2-(1-{[(4-chlorophenyl)sulfonyl]-2,5-difluoroanilino}ethyl)phenoxy]propyl}-N-methyl-1-naphthamide [Example 966]”, above 500 nM.
